According to paper PMC12846068, “Insights into Transport Function of the Murine Organic Anion-Transporting Polypeptide OATP1B2 by Comparison with Its Rat and Human Orthologues” (Toxics, 2025):
Where two headings read alike, the source gives them in different places.

What was measured:
mOATP1B2 = biological target: T1, mOATP1B2 (Mus musculus, UniProt Q9JJL3); assay: cis-inhibition of mOATP1B2-mediated E1S or TCA uptake in HEK293 cells; assay type: cell-based
T1 construct: The full-length mOATP1B2 and rOATP1B2 consist of 689 and 678 amino acids
T1 sequence (Q9JJL3 1-689): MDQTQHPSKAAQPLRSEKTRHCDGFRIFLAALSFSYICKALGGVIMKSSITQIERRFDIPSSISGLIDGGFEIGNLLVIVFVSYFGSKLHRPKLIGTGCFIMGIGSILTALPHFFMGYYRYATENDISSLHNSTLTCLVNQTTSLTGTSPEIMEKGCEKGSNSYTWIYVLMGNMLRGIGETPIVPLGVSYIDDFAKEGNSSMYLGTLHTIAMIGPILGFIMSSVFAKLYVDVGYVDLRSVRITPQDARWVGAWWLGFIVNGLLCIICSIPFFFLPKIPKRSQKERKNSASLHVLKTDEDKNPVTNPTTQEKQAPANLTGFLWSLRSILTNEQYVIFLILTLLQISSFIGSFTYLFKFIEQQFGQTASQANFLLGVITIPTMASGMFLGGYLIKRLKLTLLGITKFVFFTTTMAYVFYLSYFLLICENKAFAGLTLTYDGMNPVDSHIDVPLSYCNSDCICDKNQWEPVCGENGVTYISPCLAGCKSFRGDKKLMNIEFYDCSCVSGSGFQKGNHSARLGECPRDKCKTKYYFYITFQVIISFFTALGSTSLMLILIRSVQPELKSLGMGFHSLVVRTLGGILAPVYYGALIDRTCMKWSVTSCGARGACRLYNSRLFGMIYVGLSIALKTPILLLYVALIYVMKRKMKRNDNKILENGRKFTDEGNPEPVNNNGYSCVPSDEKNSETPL
Description: Inhibition experiments with mOATP1B2 and rOATP2B1 were carried out in triplicate as cis-inhibition. […] Inhibitory effects were calculated as a percentage of the net-uptake rates. […] The means ± average deviation (AD, for N = 2) were calculated from two experiments on two different days. The significance as a p-value was calculated using Student's t-test in Microsoft Excel.

rOATP1B2 = biological target: T2, rOATP1B2 (Rattus norvegicus, UniProt Q9QZX8); assay: cis-inhibition of rOATP1B2-mediated E1S or TCA uptake in HEK293 cells; assay type: cell-based
T2 construct: The full-length mOATP1B2 and rOATP1B2 consist of 689 and 678 amino acids
T2 sequence (Q9QZX8 1-687): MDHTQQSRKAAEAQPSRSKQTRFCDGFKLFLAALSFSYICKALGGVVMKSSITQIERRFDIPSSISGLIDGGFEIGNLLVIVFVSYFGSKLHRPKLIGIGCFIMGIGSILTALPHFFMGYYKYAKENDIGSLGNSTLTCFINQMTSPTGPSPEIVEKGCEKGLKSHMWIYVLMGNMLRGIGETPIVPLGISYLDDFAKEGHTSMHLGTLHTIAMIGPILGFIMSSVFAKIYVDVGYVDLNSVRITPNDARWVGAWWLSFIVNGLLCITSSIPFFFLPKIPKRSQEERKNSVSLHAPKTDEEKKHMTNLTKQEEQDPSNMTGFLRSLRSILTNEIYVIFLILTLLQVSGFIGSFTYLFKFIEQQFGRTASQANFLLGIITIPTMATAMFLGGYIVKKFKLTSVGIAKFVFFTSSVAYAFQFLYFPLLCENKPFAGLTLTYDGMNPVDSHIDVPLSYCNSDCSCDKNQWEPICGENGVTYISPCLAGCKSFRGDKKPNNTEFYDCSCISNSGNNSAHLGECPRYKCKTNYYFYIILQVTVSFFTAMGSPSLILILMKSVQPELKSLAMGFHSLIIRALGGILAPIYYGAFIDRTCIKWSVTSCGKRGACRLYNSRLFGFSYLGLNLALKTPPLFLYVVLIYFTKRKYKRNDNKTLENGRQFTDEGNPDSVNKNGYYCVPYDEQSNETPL

hOATP1B1 = biological target: T3, hOATP1B1 (Homo sapiens, UniProt Q9Y6L6); assay: cis-inhibition of hOATP1B1-mediated E1S uptake in HEK293 cells; assay type: cell-based; parameters: expressed in transfected cells; host or cells: HEK-293, stably transfected; details: 10 µM drug, 0.01 µM [3H]-E1S, 1 min
T3 sequence (Q9Y6L6 1-691): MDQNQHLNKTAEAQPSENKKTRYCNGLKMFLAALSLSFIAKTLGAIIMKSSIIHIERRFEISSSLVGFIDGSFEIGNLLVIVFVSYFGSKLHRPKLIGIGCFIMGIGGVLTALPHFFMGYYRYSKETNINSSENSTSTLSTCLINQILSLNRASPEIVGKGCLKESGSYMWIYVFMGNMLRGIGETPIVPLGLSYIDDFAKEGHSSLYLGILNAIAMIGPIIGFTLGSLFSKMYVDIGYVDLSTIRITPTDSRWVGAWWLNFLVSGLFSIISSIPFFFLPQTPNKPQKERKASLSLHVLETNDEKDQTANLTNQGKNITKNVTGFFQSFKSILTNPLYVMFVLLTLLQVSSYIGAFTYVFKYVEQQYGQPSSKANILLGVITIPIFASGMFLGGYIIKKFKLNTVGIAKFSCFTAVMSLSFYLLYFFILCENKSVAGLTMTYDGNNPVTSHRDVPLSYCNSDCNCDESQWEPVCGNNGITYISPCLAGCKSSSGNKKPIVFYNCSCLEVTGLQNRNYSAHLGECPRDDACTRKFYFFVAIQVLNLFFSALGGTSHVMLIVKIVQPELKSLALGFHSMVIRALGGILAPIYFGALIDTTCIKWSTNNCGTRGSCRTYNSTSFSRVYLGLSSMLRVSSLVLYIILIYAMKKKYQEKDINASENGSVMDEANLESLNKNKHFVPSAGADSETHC
Description: (§1) Inhibitory effects were calculated as a percentage of the net-uptake rates.
(§2) The means ± average deviation (AD, for N = 2) were calculated from two experiments on two different days. The significance as a p-value was calculated using Student’s t-test in Microsoft Excel.

hOATP1B3 = biological target: T4, hOATP1B3 (Homo sapiens, UniProt Q9NPD5); assay: cis-inhibition of hOATP1B3-mediated TCA uptake in HEK293 cells; assay type: cell-based; parameters: expressed in transfected cells; host or cells: HEK-293, stably transfected; details: 10 µM drug, 1 µM TCA, 10 min
T4 sequence (Q9NPD5 1-702): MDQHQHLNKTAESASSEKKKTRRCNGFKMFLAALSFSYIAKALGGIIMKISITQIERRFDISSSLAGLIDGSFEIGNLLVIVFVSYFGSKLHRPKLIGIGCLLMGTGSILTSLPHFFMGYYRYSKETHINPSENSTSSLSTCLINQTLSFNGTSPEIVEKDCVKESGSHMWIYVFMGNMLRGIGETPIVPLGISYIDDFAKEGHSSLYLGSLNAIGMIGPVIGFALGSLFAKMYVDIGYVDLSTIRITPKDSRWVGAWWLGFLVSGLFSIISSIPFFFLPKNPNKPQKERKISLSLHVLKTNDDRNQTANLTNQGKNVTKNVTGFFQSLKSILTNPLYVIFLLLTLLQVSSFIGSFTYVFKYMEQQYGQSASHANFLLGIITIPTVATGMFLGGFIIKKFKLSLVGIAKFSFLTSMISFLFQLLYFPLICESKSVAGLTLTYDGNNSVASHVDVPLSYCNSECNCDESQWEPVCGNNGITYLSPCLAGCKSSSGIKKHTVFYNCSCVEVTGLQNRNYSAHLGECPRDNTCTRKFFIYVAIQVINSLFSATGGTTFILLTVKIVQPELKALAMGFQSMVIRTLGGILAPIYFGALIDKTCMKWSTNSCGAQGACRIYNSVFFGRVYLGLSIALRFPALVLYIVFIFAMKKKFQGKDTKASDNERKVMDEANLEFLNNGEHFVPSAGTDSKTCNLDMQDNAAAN
Description: as §1, §2

[1] = substrate: C[C@H](CCC(=O)NCCS(=O)(=O)O)[C@H]1CC[C@H]2[C@@H]3[C@H](O)C[C@@H]4C[C@H](O)CC[C@]4(C)[C@H]3C[C@H](O)[C@]12C; assay: cells, lysate or membranes; details: 1 min, 37 °C, increasing unlabeled substrate with 10 nM 3H-substrate, pH 7.4
[2] = HEK293, 10 µM drug, 1 µM [3H]-E1S, 1 min, read-out: Inhibitory effect on mOATP1B2-mediated E1S uptake
[3] = HEK293, read-out: Inhibitory effect on mOATP1B2-mediated TCA uptake, 10 µM drug, 1 µM [3H]-TCA, 1 min
[4] = HEK293, 10 µM drug, 1 µM [3H]-E1S, 1 min, read-out: Inhibitory effect on rOATP1B2-mediated E1S uptake
[5] = HEK293, read-out: Inhibitory effect on rOATP1B2-mediated TCA uptake, 10 µM drug, 1 µM [3H]-TCA, 1 min
[6] = 10 µM drug, substrates E1S and TCA not separated

CC(C)c1nc(CN(C)C(=O)N[C@H](C(=O)N[C@@H](Cc2ccccc2)C[C@H](O)[C@H](Cc2ccccc2)NC(=O)OCc2cncs2)C(C)C)cs1 [Ritonavir, ritonavir]
inhibition at 10 µM (mOATP1B2; [2]): 74% | inhibition at 10 µM (mOATP1B2; [3]): 71% | inhibition at 10 µM (rOATP1B2; [4]): 84% | inhibition at 10 µM (rOATP1B2; [5]): 78% | inhibition at 10 µM (rOATP1B2; HEK293, read-out: Inhibitory effect on rOATP1B2-mediated substrate uptake (summary over E1S and TCA), 10 µM drug, substrates E1S and TCA not separated): > 70%

CCCc1nc(C(C)(C)O)c(C(=O)O)n1Cc1ccc(-c2ccccc2-c2nnn[nH]2)cc1 [Olmesartan, olmesartan]
Inhibitory effect on mOATP1B2-mediated substrate uptake (summary over E1S and TCA) (mOATP1B2; [6]): below 50% | inhibition at 10 µM (mOATP1B2; [2]): 18% | inhibition at 10 µM (mOATP1B2; [3]): 25% | Inhibitory effect on rOATP1B2-mediated substrate uptake (summary over E1S and TCA) (rOATP1B2; [6]): below 50% | inhibition at 10 µM (rOATP1B2; [4]): 27% | inhibition at 10 µM (rOATP1B2; [5]): 32% | Inhibitory effect on hOATP1B1-mediated E1S uptake (hOATP1B1): 18% | Inhibitory effect on hOATP1B1-mediated E1S uptake (hOATP1B1; listed as olmesartan): less than 50% | Inhibitory effect on hOATP1B3-mediated TCA uptake (hOATP1B3): 29% | Inhibitory effect on hOATP1B3-mediated TCA uptake (hOATP1B3; listed as olmesartan): less than 50%

B1: rOATP1B2 (Rattus norvegicus) (protein)
chain: MDHTQQSRKAAEAQPSRSKQTRFCDGFKLFLAALSFSYICKALGGVVMKSSITQIERRFDIPSSISGLIDGGFEIGNLLVIVFVSYFGSKLHRPKLIGIGCFIMGIGSILTALPHFFMGYYKYAKENDIGSLGNSTLTCFINQMTSPTGPSPEIVEKGCEKGLKSHMWIYVLMGNMLRGIGETPIVPLGISYLDDFAKEGHTSMHLGTLHTIAMIGPILGFIMSSVFAKIYVDVGYVDLNSVRITPNDARWVGAWWLSFIVNGLLCITSSIPFFFLPKIPKRSQEERKNSVSLHAPKTDEEKKHMTNLTKQEEQDPSNMTGFLRSLRSILTNEIYVIFLILTLLQVSGFIGSFTYLFKFIEQQFGRTASQANFLLGIITIPTMATAMFLGGYIVKKFKLTSVGIAKFVFFTSSVAYAFQFLYFPLLCENKPFAGLTLTYDGMNPVDSHIDVPLSYCNSDCSCDKNQWEPICGENGVTYISPCLAGCKSFRGDKKPNNTEFYDCSCISNSGNNSAHLGECPRYKCKTNYYFYIILQVTVSFFTAMGSPSLILILMKSVQPELKSLAMGFHSLIIRALGGILAPIYYGAFIDRTCIKWSVTSCGKRGACRLYNSRLFGFSYLGLNLALKTPPLFLYVVLIYFTKRKYKRNDNKTLENGRQFTDEGNPDSVNKNGYYCVPYDEQSNETPL
Km ([1]; other: rOATP1B2-HEK293, net uptake): 16 ± 3 µM

B2: mOATP1B2 (Mus musculus) (protein)
chain: MDQTQHPSKAAQPLRSEKTRHCDGFRIFLAALSFSYICKALGGVIMKSSITQIERRFDIPSSISGLIDGGFEIGNLLVIVFVSYFGSKLHRPKLIGTGCFIMGIGSILTALPHFFMGYYRYATENDISSLHNSTLTCLVNQTTSLTGTSPEIMEKGCEKGSNSYTWIYVLMGNMLRGIGETPIVPLGVSYIDDFAKEGNSSMYLGTLHTIAMIGPILGFIMSSVFAKLYVDVGYVDLRSVRITPQDARWVGAWWLGFIVNGLLCIICSIPFFFLPKIPKRSQKERKNSASLHVLKTDEDKNPVTNPTTQEKQAPANLTGFLWSLRSILTNEQYVIFLILTLLQISSFIGSFTYLFKFIEQQFGQTASQANFLLGVITIPTMASGMFLGGYLIKRLKLTLLGITKFVFFTTTMAYVFYLSYFLLICENKAFAGLTLTYDGMNPVDSHIDVPLSYCNSDCICDKNQWEPVCGENGVTYISPCLAGCKSFRGDKKLMNIEFYDCSCVSGSGFQKGNHSARLGECPRDKCKTKYYFYITFQVIISFFTALGSTSLMLILIRSVQPELKSLGMGFHSLVVRTLGGILAPVYYGALIDRTCMKWSVTSCGARGACRLYNSRLFGMIYVGLSIALKTPILLLYVALIYVMKRKMKRNDNKILENGRKFTDEGNPEPVNNNGYSCVPSDEKNSETPL
Km ([1]; other: mOATP1B2-HEK293, net uptake): 73 ± 11 µM
